{
  "source": "paper PMC2680390",
  "about": "(Journal of medicinal chemistry, 2008)",
  "key": {"[1]": {"biological_target": "ERβ/SRC-3 coactivator interaction (Homo sapiens, UniProt Q92731)", "test": "TR-FRET CBI assay, ERβ-LBD / SRC-3-NRD", "type": "binding", "conditions": "for TR-FRET Ki ERβ: estradiol present, fluorescein-SRC-3-NRD"}, "[2]": {"biological_target": "ERβ (Homo sapiens, UniProt Q92731)", "sequence (Q92731 whole entry)": "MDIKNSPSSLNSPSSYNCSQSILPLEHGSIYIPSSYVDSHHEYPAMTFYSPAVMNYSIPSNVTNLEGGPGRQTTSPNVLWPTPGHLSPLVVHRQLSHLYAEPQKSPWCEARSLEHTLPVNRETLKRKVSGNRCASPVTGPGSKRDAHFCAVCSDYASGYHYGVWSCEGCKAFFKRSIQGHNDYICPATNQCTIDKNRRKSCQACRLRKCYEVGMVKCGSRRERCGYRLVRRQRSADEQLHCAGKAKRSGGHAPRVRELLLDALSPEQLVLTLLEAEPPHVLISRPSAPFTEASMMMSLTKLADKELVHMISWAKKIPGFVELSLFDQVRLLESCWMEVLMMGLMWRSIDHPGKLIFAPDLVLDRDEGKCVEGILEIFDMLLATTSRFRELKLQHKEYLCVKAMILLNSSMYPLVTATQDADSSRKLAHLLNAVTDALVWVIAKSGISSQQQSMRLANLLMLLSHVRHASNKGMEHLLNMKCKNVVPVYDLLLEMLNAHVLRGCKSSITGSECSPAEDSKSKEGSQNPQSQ", "test": "Preliminary cell-based reporter gene systems, ERβ", "conditions": "preliminary studies"}, "[3]": {"tested_on": "HEC-1 cells", "test": "CellTiter 96 AQueous One Solution Cell Proliferation Assay", "type": "cell-based", "conditions": "doses up to 20 μM"}, "[4]": {"biological_target": "T1, ERα/SRC-3 coactivator interaction (Homo sapiens, UniProt P03372, C381S/C530S)", "T1 sequence (P03372 311-547 C381S/C530S limits assumed)": "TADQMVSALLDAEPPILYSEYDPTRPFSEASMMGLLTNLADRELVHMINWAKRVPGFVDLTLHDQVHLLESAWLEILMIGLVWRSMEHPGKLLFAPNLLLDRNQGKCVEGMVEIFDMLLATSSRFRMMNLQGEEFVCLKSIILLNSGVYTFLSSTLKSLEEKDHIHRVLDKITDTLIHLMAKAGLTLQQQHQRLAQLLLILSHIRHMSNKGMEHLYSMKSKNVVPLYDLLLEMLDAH", "test": "TR-FRET CBI assay, ERα-LBD / SRC-3-NRD", "type": "binding", "conditions": "1 μM estradiol, fluorescein-SRC-3-NRD 50 nM; for Ki: TR-FRET Ki ERα"}, "[5]": {"biological_target": "ERα coactivator binding", "conditions": "read-out: Ki by fluorescence polarization assay; FP assay; cited from earlier work"}, "[6]": {"biological_target": "T2, ERβ ligand-binding domain (site-specifically labeled terbium/streptavidin-biotin/ER-LBD construct) (site-specifically labeled with biotin; bound to streptavidin-terbium in the assay)", "T2 chain": "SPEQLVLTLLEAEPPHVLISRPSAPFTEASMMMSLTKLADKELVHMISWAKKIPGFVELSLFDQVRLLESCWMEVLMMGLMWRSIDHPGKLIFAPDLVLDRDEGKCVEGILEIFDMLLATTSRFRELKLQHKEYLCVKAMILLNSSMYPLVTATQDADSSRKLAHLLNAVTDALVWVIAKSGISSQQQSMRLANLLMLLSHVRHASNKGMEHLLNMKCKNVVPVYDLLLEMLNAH", "test": "FRET or BRET"}},
  "data": [
    {"molecule": "CC(C)CNc1cc(/C=C/c2ccccc2)nc(NCC(C)C)n1", "note": "[Compound 2a, N,N'-diisobutyl-(6-styryl-pyrimidin-2,4-yl)-diamine]", "values": [
      {"measurement": "Ki", "setting": "[1]", "value": 242, "unit": "µM"},
      {"measurement": "TR-FRET Ki ERβ", "setting": "[1]", "value": "very modest affinity for ERβ"}
    ]},
    {"molecule": "CC(C)CNc1cc(CCc2ccccc2)nc(NCC(C)C)n1", "note": "[Compound 3a]", "values": [
      {"measurement": "Mechanism-based inhibition of ERβ in cell-based reporter gene systems", "setting": "[2]", "value": "no mechanism-based inhibition of ERβ"},
      {"measurement": "Viable cell counts", "setting": "[3]", "value": "decreased significantly only at the highest doses of compound (20 μM)"}
    ]},
    {"molecule": "CC(C)CNc1nc(/C=C/c2ccccc2)cc(N(Cc2ccccc2)C(=O)OC(C)(C)C)n1", "note": "[Compound 8b]", "values": [
      {"measurement": "TR-FRET Ki ERα", "setting": "[4]", "value": "no activity for ERα"},
      {"measurement": "TR-FRET Ki ERβ", "setting": "[1]", "value": "very modest affinity for ERβ"}
    ]},
    {"molecule": "CC(C)CNc1cc(/C=C/c2ccccc2)nc(NCc2ccccc2)n1", "note": "[Compound 10a, N^2-Benzyl-N^4-isobutyl-6-styryl-pyrimidine-2,4-diamine]", "values": [
      {"measurement": "Viable cell counts", "setting": "[3]", "value": "decreased significantly only at the highest doses of compound (20 μM)"}
    ]},
    {"molecule": "CC(C)CCc1cc(NCC(C)C)nc(NCC(C)C)n1", "note": "[Compound 13b, 2,4-diisobutylamino-6-isoamylpyrimidine]", "values": [
      {"measurement": "Mechanism-based inhibition of ERβ in cell-based reporter gene systems", "setting": "[2]", "value": "no mechanism-based inhibition of ERβ"},
      {"measurement": "Ki", "setting": "[5]", "value": 29, "unit": "µM"}
    ]},
    {"molecule": "CC(C)CCc1cc(NCC(C)C)nc(NCc2ccccc2)n1", "note": "[Compound 18b]", "values": [
      {"measurement": "Viable cell counts", "setting": "[3]", "value": "decreased significantly only at the highest doses of compound (20 μM)"}
    ]},
    {"molecule": "CC(C)CNc1cc(NCC(C)C)nc(NCC(C)C)n1", "note": "[Compound 25a, N,N',N''-Triisobutyl-pyrimidine-2,4,6-triamine]", "values": [
      {"measurement": "TR-FRET Ki ERβ", "setting": "[1]", "value": "very modest affinity for ERβ"},
      {"measurement": "Viable cell counts", "setting": "[3]", "value": "decreased significantly only at the highest doses of compound (20 μM)"}
    ]},
    {"molecule": "CC(C)CSc1cc(SCC(C)C)nc(SCC(C)C)n1", "note": "[Compound 25e, 2,4,6-Tris-isobutylsulfanyl-pyrimidine]", "values": [
      {"measurement": "Ki", "setting": "[4]", "value": 120, "unit": "µM"}
    ]},
    {"molecule": "CC(C)CNc1cc(Cl)nc(NCC(C)C)n1", "note": "[Compound 26, 2,4-diisobutylamino-6-chloropyrimidine]", "values": [
      {"measurement": "TR-FRET Ki ERα", "setting": "[4]", "value": "complete loss of activity"},
      {"measurement": "Ki", "setting": "[4]", "value": "> 1000", "unit": "µM"},
      {"measurement": "Ki", "setting": "[1]", "value": "> 1000", "unit": "µM"}
    ]},
    {"molecule": "CC(C)CNc1cc(NCc2ccccc2)nc(NCC(C)C)n1", "note": "[Compound 27a]", "values": [
      {"measurement": "Ki", "setting": "[4]", "value": 7.3, "unit": "µM"},
      {"measurement": "Mechanism-based inhibition of ERβ in cell-based reporter gene systems", "setting": "[2]", "value": "no mechanism-based inhibition of ERβ"}
    ]},
    {"molecule": "CC(C)CNc1cc(OCC(C)C)nc(NCC(C)C)n1", "note": "[Compound 27b]", "values": [
      {"measurement": "TR-FRET Ki ERα", "setting": "[4]", "value": "lack of activity"}
    ]},
    {"molecule": "CC(C)CNc1ccnc(NCC(C)C)n1", "note": "[Compound 27d, 2,4-diisobutylamino-pyrimidine]", "values": [
      {"measurement": "TR-FRET Ki ERα", "setting": "[4]", "value": "complete loss of activity"},
      {"measurement": "Ki", "setting": "[4]", "value": "> 1000", "unit": "µM"},
      {"measurement": "Ki", "setting": "[1]", "value": "> 1000", "unit": "µM"}
    ]},
    {"molecule": "CC(C)CNc1cc(S(=O)(=O)CC(C)C)nc(NCC(C)C)n1", "note": "[Compound 28]", "values": [
      {"measurement": "TR-FRET Ki ERα", "setting": "[4]", "value": "lack of activity"}
    ]},
    {"molecule": "CC(C)CCc1cc(NCC(C)C)nc(N(C)CC(C)C)n1", "note": "[Compound 31a]", "values": [
      {"measurement": "TR-FRET Ki ERα", "setting": "[4]", "value": "activity is nearly fully restored"}
    ]},
    {"molecule": "CC(C)CNc1cc(CCc2cccc3ccccc23)nc(N(C)CC(C)C)n1", "note": "[Compound 31c]", "values": [
      {"measurement": "TR-FRET Ki ERα", "setting": "[4]", "value": "inactive"}
    ]},
    {"molecule": "CC(C)CNc1cc(CCc2ccccc2)nc(N(C)CC(C)C)n1", "note": "[Compound 32, N^2-methyl-N^2,N^4-diisobutyl-(6-phenethyl-pyrimidin-2,4-yl)-diamine]", "values": [
      {"measurement": "TR-FRET Ki ERα", "setting": "[4]", "value": "inactive"}
    ]},
    {"molecule": "CC(C)CCc1cc(N(C)CC(C)C)nc(NCC(C)C)n1", "note": "[Compound 34a]", "values": [
      {"measurement": "TR-FRET Ki ERα", "setting": "[4]", "value": "no binding is observed"}
    ]},
    {"molecule": "CC(C)CCc1cc(NCC(C)C)nc(OCC(C)C)n1", "note": "[Compound 37a, [2-Isobutoxy-6-(3-methyl-butyl)-pyrimidin-4-yl]-isobutylamine]", "values": [
      {"measurement": "TR-FRET Ki ERα", "setting": "[4]", "value": "None of these O- or S-containing pyrimidines showed any inhibition"},
      {"measurement": "Viable cell counts", "setting": "[3]", "value": "decreased significantly only at the highest doses of compound (20 μM)"}
    ]},
    {"molecule": "CC(C)CCc1cc(NCC(C)C)nc(S(=O)(=O)CC(C)C)n1", "note": "[Compound 39, Isobutyl-[6-(3-methyl-butyl)-2-(2-methyl-propane-1-sulfonyl)-pyrimidin-4-yl]-amine]", "values": [
      {"measurement": "TR-FRET Ki ERα", "setting": "[4]", "value": "None of these O- or S-containing pyrimidines showed any inhibition"}
    ]},
    {"molecule": "LTERHKILHRLLQEGSPSD", "note": "[unlabeled peptide containing the NR Box II (LXXLL motif) of SRC-1]", "values": [
      {"measurement": "Ki", "setting": "[6]", "value": 0.066, "unit": "µM"}
    ]}
  ]
}
